These molecules were tested against T1, human PI4KIII-beta 13-828 (D316-330) (Homo sapiens, UniProt Q9UBF8) (assay: PI4 KB Activity Assay (ADP-GLO Kinase assay)). Settings: 1 mM ATP, 60 μM phosphatidylinositol, 3 hours at room temperature; read-out: mean pIC50 (converted).
T1 construct: human PI4KIII-beta 13-828 (D316-330)
Assay type: biochemical
Description: The in vitro inhibition of human PI4KIII-beta 13-828 (D316-330) activity was determined by using the ADP-GLO Kinase assay kit from Promega. Inhibitors were dissolved in 100% DMSO at a concentration of 1 mM. Dilutions were prepared in 100% DMSO using a 1 in 3 serial step dilution. A 60 nL stamp from an 11-point titration was transferred to a white low volume 384 well Greiner assay plate ensuring a final DMSO concentration of 1% across the plate and a top final concentration of inhibitor of 10 μM. The PI4KIII-beta assay contained 25 mM Hepes pH 7.5 (NaOH), 10 mM MgCl2, 0.5 mM EGTA, 0.1% Triton X-100, 2 mM TCEP, and 0.1 mg/ml BSA, 1 mM ATP, 60 μM phosphatidylinositol, and 1.5 nM human PI4K-beta 13-828 (D316-330) in a total volume of 6 μL. The assay was initiated with the addition of enzyme, covered, and incubated at room temperature for 3 hours. The assays were stopped with the addition of 6 μl ADP-GLO Reagent containing 0.1% CHAPS to deplete the unconsumed ATP. The plates were incubated at room temperature for 60 min and then 12 μl of the Kinase Detection Reagent containing 0.1% CHAPS was added to convert ADP to ATP and introduce luciferase and luciferin. After 40 min incubation at room temperature the luminescent signal was read on a BMG Labtech PHERAstar FS with the following settings; Gain 3600, Focal height 13.7 mm, measurement interval time 1 s, Settling time 0.2 s. The inhibitory effect of the PI4K-beta activity of the compounds was evaluated by the IC50 of the response relative to the high, no compound, and low, no enzyme, controls by fitting to the four parameter dose response question.

T1 sequence (Q9UBF8 1-801 isoform Q9UBF8-2): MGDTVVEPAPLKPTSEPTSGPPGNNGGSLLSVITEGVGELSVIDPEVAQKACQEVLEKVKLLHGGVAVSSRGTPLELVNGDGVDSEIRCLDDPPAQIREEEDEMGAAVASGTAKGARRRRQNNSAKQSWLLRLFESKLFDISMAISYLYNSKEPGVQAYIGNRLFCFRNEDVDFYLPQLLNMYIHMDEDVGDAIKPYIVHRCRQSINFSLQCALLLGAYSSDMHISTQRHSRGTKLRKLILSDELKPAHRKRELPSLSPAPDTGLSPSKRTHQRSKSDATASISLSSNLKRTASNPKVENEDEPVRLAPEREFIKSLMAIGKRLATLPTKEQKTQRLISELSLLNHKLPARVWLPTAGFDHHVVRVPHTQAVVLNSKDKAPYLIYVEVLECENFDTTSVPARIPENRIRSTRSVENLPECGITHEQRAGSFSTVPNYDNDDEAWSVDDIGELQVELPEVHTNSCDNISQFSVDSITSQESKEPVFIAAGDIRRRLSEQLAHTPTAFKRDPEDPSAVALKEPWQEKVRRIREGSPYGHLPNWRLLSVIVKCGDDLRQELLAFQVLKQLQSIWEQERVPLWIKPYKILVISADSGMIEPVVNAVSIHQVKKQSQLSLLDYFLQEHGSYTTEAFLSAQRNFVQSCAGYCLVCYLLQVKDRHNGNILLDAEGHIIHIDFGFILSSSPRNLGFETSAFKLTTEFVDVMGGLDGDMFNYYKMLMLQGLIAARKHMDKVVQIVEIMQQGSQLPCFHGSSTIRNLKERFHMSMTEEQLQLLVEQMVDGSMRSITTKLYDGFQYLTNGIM

| SMILES | IC50 [nM] |
| --- | --- |
| Cc1ccc(-c2c(C)nn3c(NCc4cccc(-n5cccn5)c4)cc(C(C)(C)O)nc23)cc1C(=O)N(C)CCO [Compound 47] | ≤ 3.98 |
| COc1ccc(-c2c(C)nn3c(NCc4cccc(-c5nccn5C)c4)cc(C(C)(C)O)nc23)cc1C(=O)N(C)CC(C)O (stereo not shown) [Compound 82, 5-(5-(2-Hydroxypropan-2-yl)-2-methyl-7-((3-(1-methyl-1H-imidazol-2-yl)benzyl)amino)pyrazolo[1,5-a]pyrimidin-3-yl)-N-(2-hydroxypropyl)-2-methoxy-N-methylbenzamide] | ≤ 3.98 |
| COc1ccc(-c2c(C)nn3c(NCc4cccc(-c5nccn5C)c4)cc(C(C)(C)O)nc23)cc1C(=O)N(C)C(C)CO (stereo not shown) [Compound 42] | ≤ 3.98 |
| COc1ccc(-c2c(C)nn3c(NCc4cccc(-c5nccn5C)c4)cc(C(C)CO)nc23)cc1S(=O)(=O)CCO (stereo not shown) [Compound 53, 2-(3-(3-((2-Hydroxyethyl)sulfonyl)-4-methoxyphenyl)-2-methyl-7-((3-(1-methyl-1H-imidazol-2-yl)benzyl)amino)pyrazolo[1,5-a]pyrimidin-5-yl)propan-1-ol] | ≤ 3.98 |
| Cc1ccc(-c2c(C)nn3c(NCc4cccc(-n5cccn5)c4)cc(C(C)(C)O)nc23)cc1C(=O)N1CC[C@H](O)C1 [Compound 50] | ≤ 3.98 |
| Cc1ccc(-c2c(C)nn3c(NCc4cccc(-n5cccn5)c4)cc(C(C)(C)O)nc23)cc1C(=O)N(C)CCCO [Compound 34] | ≤ 3.98 |
| Cc1nn2c(NCc3cccc(-c4nccn4C)c3)cc(C(C)O)nc2c1-c1ccc(Cl)c(C(=O)N(C)CCCO)c1 (stereo not shown) [Compound 10] | ≤ 3.98 |
| Cc1ccc(-c2c(C)nn3c(NCc4cccc(-c5nccn5C)c4)cc(C(C)(C)O)nc23)cc1C(=O)N(C)C1CCOCC1 [Compound 45] | ≤ 3.98 |
| Cc1ccc(-c2c(C)nn3c(NCc4cccc(-c5nccn5C)c4)cc(C(C)(C)O)nc23)cc1C(=O)N(C)CCO [Compound 43, N-(2-hydroxyethyl)-5-(5-(2-hydroxypropan-2-yl)-2-methyl-7-((3-(1-methyl-1H-imidazol-2-yl)benzyl)amino)pyrazolo[1,5-a]pyrimidin-3-yl)-N,2-dimethylbenzamide] | ≤ 3.98 |
| COc1ccc(-c2c(C)nn3c(NCc4cccc(-c5nccn5C)c4)cc(C(C)(C)O)nc23)cc1C(=O)N(C)CC(C)O (single isomer, unassigned) [Compound 83, 5-(5-(2-Hydroxypropan-2-yl)-2-methyl-7-((3-(1-methyl-1H-imidazol-2-yl)benzyl)amino)pyrazolo[1,5-a]pyrimidin-3-yl)-N-(2-hydroxypropyl)-2-methoxy-N-methylbenzamide] | ≤ 3.98 |
| Cc1ccc(-c2c(C)nn3c(NCc4cccc(-c5nccn5C)c4)cc(C(C)(C)O)nc23)cc1C(=O)N(C)CC(C)O (stereo not shown) [Compound 61] | ≤ 3.98 |
| COc1ccc(-c2c(C)nn3c(NCc4cccc(-c5nccn5C)c4)cc(C(C)(C)O)nc23)cc1C(=O)N1CCCC1CO (stereo not shown) [Compound 44] | ≤ 3.98 |
| Cc1ccc(-c2c(C)nn3c(NCc4cccc(-c5nccn5C)c4)cc(C(C)(C)O)nc23)cc1C(=O)N(C)CC(C)O (single isomer, unassigned) [Compound 62, 5-(5-(2-Hydroxypropan-2-yl)-2-methyl-7-((3-(1-methyl-1H-imidazol-2-yl)benzyl)amino)pyrazolo[1,5-a]pyrimidin-3-yl)-N-(2-hydroxypropyl)-N,2-dimethylbenzamide] | ≤ 3.98 |
| COc1ccc(-c2c(C)nn3c(NCc4cccc(-c5nccn5C)c4)cc(C(C)O)nc23)cc1C(=O)N(C)CCCO (stereo not shown) [Compound 9, 5-(5-(1-Hydroxyethyl)-2-methyl-7-((3-(1-methyl-1H-imidazol-2-yl)benzyl)amino)pyrazolo[1,5-a]pyrimidin-3-yl)-N-(3-hydroxypropyl)-2-methoxy-N-methylbenzamide] | ≤ 3.98 |
| Cc1ccc(-c2c(C)nn3c(NCc4cccc(-c5nccn5C)c4)cc(C(C)(C)O)nc23)cc1C(=O)N(C)C1CCOC1 (stereo not shown) [Compound 59, 5-(5-(2-Hydroxypropan-2-yl)-2-methyl-7-((3-(1-methyl-1H-imidazol-2-yl)benzyl)amino)pyrazolo[1,5-a]pyrimidin-3-yl)-N,2-dimethyl-N-(tetrahydrofuran-3-yl)benzamide] | ≤ 3.98 |
| Cc1ccc(-c2c(C)nn3c(NCc4cccc(-c5nccn5C)c4)cc(C(C)(C)O)nc23)cc1C(=O)N1CC[C@H](O)C1 [Compound 29, (S)-(5-(5-(2-hydroxypropan-2-yl)-2-methyl-7-((3-(1-methyl-1H-imidazol-2-yl)benzyl)amino)pyrazolo[1,5-a]pyrimidin-3-yl)-2-methylphenyl)(3-hydroxypyrrolidin-1-yl)methanone] | ≤ 3.98 |

| SMILES | IC50 [nM] |
| --- | --- |
| Cc1nn2c(NCc3cccc(-c4nccn4C)c3)cc(C(C)O)nc2c1-c1ccc(Cl)c(C(=O)N(C)CCCO)c1 (single isomer, unassigned) [Compound 57, 2-Chloro-5-(5-(1-hydroxyethyl)-2-methyl-7-((3-(1-methyl-1H-imidazol-2-yl)benzyl)amino)pyrazolo[1,5-a]pyrimidin-3-yl)-N-(3-hydroxypropyl)-N-methylbenzamide] | ≤ 3.98 |
| COc1ccc(-c2c(C)nn3c(NCc4cccc(-c5nccn5C)c4)cc(C4CCOCC4)nc23)cc1S(=O)(=O)CCO [Compound 64, 2-((2-Methoxy-5-(2-methyl-7-((3-(1-methyl-1H-imidazol-2-yl)benzyl)amino)-5-(tetrahydro-2H-pyran-4-yl)pyrazolo[1,5-a]pyrimidin-3-yl)phenyl)sulfonyl)ethan-1-ol] | ≤ 3.98 |
| COc1ccc(-c2c(C)nn3c(NCc4cccc(-n5cccn5)c4)cc(C(C)(C)O)nc23)cc1C(=O)N1CCC[C@@H]1CO [Compound 49] | ≤ 3.98 |
| Cc1ccc(-c2c(C)nn3c(NCc4cccc(-c5nccn5C)c4)cc(C(C)(C)O)nc23)cc1C(=O)N(C)[C@H](C)CO [Compound 39] | ≤ 3.98 |
| Cc1nn2c(NCc3cccc(-c4nccn4C)c3)cc(C(C)(C)O)nc2c1-c1ccc(Cl)c(C(=O)N2CC[C@H](O)C2)c1 [Compound 18] | ≤ 3.98 |
| COc1ccc(-c2c(C)nn3c(NCc4cccc(-c5nccn5C)c4)cc(C(C)(C)CO)nc23)cc1S(=O)(=O)CCO [Compound 56, 2-(3-(3-((2-Hydroxyethyl)sulfonyl)-4-methoxyphenyl)-2-methyl-7-((3-(1-methyl-1H-imidazol-2-yl)benzyl)amino)pyrazolo[1,5-a]pyrimidin-5-yl)-2-methylpropan-1-ol] | ≤ 3.98 |
| Cc1nn2c(NCc3cccc(-c4nccn4C)c3)cc(C(C)(C)O)nc2c1-c1ccc(Cl)c(C(=O)N(C)CCCO)c1 [Compound 7, 2-Chloro-5-(5-(2-hydroxypropan-2-yl)-2-methyl-7-((3-(1-methyl-1H-imidazol-2-yl)benzyl)amino)pyrazolo[1,5-a]pyrimidin-3-yl)-N-(3-hydroxypropyl)-N-methylbenzamide] | ≤ 3.98 |
| CCC(CO)c1cc(NCc2cccc(-c3nccn3C)c2)n2nc(C)c(-c3ccc(OC)c(S(=O)(=O)CCO)c3)c2n1 (stereo not shown) [Compound 86, 2-(3-(3-((2-Hydroxyethyl)sulfonyl)-4-methoxyphenyl)-2-methyl-7-((3-(1-methyl-1H-imidazol-2-yl)benzyl)amino)pyrazolo[1,5-a]pyrimidin-5-yl)butan-1-ol] | ≤ 3.98 |
| COc1ccc(-c2c(C)nn3c(NCc4cccc(-n5cccn5)c4)cc(C(C)(C)O)nc23)cc1C(=O)N(C)CCO [Compound 46] | ≤ 3.98 |
| Cc1ccc(-c2c(C)nn3c(NCc4cccc(-c5nccn5C)c4)cc(C(C)(C)O)nc23)cc1C(=O)N1CCC(O)C1 (stereo not shown) [Compound 41] | ≤ 3.98 |
| CCC(O)c1cc(NCc2cccc(-c3nccn3C)c2)n2nc(C)c(-c3ccc(OC)c(S(=O)(=O)CCO)c3)c2n1 (single isomer, unassigned) [Compound 75, 1-(3-(3-((2-Hydroxyethyl)sulfonyl)-4-methoxyphenyl)-2-methyl-7-((3-(1-methyl-1H-imidazol-2-yl)benzyl)amino)pyrazolo[1,5-a]pyrimidin-5-yl)propan-1-ol] | ≤ 3.98 |
| Cc1ccc(-c2c(C)nn3c(NCc4cccc(-n5cccn5)c4)cc(C(C)(C)O)nc23)cc1C(=O)N1CCC[C@@H]1CO [Compound 35] | ≤ 3.98 |
| COc1ccc(-c2c(C)nn3c(NCc4cccc(-n5cccn5)c4)cc(C(C)(C)O)nc23)cc1C(=O)N1CCC(C)(O)C1 (stereo not shown) [Compound 51] | ≤ 3.98 |
| COc1ccc(-c2c(C)nn3c(NCc4cccc(-c5nccn5C)c4)cc(C(C)O)nc23)cc1S(C)(=O)=O (stereo not shown) [Compound 1, 1-(3-(4-Methoxy-3-(methylsulfonyl)phenyl)-2-methyl-7-((3-(1-methyl-1H-imidazol-2-yl)benzyl)amino)pyrazolo[1,5-a]pyrimidin-5-yl)ethanol] | ≤ 3.98 |
| Cc1ccc(-c2c(C)nn3c(NCc4cccc(-c5nccn5C)c4)cc(C(C)(C)O)nc23)cc1C(=O)N1CCC[C@@H]1CO [Compound 25, (R)-(2-(hydroxymethyl)pyrrolidin-1-yl)(5-(5-(2-hydroxypropan-2-yl)-2-methyl-7-((3-(1-methyl-1H-imidazol-2-yl)benzyl)amino)pyrazolo[1,5-a]pyrimidin-3-yl)-2-methylphenyl)methanone] | ≤ 3.98 |

— patent publication US11649238B2, “Substituted pyrazolo[1,5-a]pyrimidines as PI4K inhibitors” (GLAXOSMITHKLINE INTELLECTUAL PROPERTY DEVELOPMENT LIMITED, priority 2018, dated 2023)
